According to patent US10231954B2, “Neurodegenerative therapies” (LYTIX BIOPHARMA AS, priority 2014, dated 2019):

Key:
Format in all cases: biochemical
EPH-B2 = target: T1, EPH-B2 (Homo sapiens, UniProt P29323); experiment: Kinase profiling EPH-B2; settings: 100 micromolar inhibitor concentration, 100 is no change; for remaining activity at 100 µM: read-out: residual kinase activity, EPH-B2
T1 sequence (P29323 19-1055): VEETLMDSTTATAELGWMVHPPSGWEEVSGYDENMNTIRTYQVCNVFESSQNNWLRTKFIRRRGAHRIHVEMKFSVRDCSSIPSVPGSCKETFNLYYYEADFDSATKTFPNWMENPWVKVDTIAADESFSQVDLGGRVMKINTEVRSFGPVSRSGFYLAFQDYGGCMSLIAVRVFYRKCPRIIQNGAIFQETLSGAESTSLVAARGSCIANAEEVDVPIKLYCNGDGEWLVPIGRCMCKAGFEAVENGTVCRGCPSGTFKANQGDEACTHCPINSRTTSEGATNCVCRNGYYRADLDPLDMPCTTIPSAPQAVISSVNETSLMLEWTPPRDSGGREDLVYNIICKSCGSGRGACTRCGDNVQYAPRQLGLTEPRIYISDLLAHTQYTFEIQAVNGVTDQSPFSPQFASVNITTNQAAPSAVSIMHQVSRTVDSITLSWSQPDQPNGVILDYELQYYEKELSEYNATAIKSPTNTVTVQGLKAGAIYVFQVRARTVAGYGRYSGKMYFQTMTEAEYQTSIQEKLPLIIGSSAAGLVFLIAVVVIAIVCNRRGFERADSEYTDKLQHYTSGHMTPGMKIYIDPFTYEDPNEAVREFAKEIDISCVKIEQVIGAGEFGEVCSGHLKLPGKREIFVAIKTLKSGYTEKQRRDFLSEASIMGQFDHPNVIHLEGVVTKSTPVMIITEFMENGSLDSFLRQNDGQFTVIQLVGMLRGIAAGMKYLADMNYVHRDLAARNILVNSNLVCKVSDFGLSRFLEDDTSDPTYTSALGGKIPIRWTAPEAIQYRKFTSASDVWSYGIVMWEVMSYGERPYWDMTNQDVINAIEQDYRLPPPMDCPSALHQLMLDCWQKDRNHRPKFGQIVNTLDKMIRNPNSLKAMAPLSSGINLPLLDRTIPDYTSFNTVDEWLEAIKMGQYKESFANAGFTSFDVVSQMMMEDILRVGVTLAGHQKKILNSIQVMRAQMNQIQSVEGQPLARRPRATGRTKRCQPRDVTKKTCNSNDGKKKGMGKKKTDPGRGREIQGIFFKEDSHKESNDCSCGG
From the text: (§1) Any value less that 25 is considered to be highly significant inhibition.

CK1γ2 = CK1γ2 (Homo sapiens, UniProt P78368); experiment: Kinase profiling CK1γ2; settings: 100 micromolar inhibitor concentration, 100 is no change; for remaining activity at 100 µM: read-out: residual kinase activity, CK1γ2
Chain of CK1γ2 (P78368 whole entry): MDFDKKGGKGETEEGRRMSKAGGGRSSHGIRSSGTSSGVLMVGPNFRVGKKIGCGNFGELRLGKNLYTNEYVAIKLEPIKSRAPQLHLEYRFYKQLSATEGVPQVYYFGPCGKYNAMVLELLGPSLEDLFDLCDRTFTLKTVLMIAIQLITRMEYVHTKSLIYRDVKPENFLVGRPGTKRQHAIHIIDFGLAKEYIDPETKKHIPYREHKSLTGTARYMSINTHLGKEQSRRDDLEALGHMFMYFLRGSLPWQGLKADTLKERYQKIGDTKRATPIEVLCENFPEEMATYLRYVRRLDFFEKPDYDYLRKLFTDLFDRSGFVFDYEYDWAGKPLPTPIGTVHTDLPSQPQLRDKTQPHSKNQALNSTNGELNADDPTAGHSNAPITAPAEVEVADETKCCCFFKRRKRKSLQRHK
From the text: as §1

BRK = BRK (Homo sapiens, UniProt Q13882); experiment: Kinase profiling BRK; settings: 100 micromolar inhibitor concentration, 100 is no change; for remaining activity at 100 µM: read-out: residual kinase activity, BRK
Chain of BRK (Q13882 whole entry, species assumed): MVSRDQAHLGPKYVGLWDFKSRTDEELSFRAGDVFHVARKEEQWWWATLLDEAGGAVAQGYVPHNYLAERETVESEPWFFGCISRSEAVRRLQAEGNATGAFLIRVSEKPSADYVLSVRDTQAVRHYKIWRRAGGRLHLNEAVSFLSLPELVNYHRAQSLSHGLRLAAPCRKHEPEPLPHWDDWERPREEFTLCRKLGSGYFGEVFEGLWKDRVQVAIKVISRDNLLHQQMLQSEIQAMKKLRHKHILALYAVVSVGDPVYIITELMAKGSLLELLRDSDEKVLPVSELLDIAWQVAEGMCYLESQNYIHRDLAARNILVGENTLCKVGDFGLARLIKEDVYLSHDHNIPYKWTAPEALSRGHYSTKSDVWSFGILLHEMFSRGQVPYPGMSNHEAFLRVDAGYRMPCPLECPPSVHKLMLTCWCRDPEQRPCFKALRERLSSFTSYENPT
From the text: as §1

BRSK1 = target: T2, BRSK1 (Homo sapiens, UniProt Q8TDC3); experiment: Kinase profiling BRSK1; settings: 100 micromolar inhibitor concentration, 100 is no change; for remaining activity at 100 µM: read-out: residual kinase activity, BRSK1
T2 sequence (Q8TDC3 1-778): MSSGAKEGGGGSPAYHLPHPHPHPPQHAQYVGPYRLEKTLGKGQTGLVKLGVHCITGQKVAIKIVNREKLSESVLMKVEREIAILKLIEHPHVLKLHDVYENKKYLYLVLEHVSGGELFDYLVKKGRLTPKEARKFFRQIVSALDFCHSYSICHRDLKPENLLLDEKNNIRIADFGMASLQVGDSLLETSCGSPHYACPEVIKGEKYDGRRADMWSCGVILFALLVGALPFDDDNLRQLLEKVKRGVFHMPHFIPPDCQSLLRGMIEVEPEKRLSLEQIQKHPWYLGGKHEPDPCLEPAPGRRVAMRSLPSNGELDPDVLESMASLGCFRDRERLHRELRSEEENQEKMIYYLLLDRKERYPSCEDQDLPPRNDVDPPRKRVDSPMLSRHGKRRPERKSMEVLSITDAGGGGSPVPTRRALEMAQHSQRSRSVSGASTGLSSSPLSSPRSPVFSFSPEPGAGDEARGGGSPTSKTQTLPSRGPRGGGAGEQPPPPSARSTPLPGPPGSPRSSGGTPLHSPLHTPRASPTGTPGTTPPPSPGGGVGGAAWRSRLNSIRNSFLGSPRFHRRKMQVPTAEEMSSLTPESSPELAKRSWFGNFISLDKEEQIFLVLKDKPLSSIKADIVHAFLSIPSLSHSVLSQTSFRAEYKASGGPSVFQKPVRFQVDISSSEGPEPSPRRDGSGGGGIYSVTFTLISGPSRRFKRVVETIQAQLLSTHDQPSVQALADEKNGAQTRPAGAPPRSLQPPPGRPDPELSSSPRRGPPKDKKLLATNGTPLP
From the text: as §1

SIK2 = SIK2 (Homo sapiens, UniProt Q9H0K1); experiment: Kinase profiling SIK2; settings: 100 micromolar inhibitor concentration, 100 is no change; for remaining activity at 100 µM: read-out: residual kinase activity, SIK2
From the text: as §1

TSSK1 = target: T3, TSSK1 (Homo sapiens, UniProt Q9BXA7); experiment: Kinase profiling TSSK1; settings: 100 micromolar inhibitor concentration, 100 is no change; for remaining activity at 100 µM: read-out: residual kinase activity, TSSK1
T3 sequence (Q9BXA7 1-367): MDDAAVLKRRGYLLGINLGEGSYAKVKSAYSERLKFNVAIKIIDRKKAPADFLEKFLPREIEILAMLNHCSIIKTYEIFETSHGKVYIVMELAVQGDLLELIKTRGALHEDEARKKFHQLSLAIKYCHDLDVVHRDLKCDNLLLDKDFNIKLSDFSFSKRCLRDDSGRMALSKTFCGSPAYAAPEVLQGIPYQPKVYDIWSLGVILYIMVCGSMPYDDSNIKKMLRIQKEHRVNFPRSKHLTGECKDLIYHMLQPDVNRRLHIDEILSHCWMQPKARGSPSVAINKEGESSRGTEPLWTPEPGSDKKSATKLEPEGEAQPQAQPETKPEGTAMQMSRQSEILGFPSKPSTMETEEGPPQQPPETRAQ
From the text: as §1

WNK1 = WNK1 (Homo sapiens, UniProt Q9H4A3); experiment: Kinase profiling WNK1; settings: 100 micromolar inhibitor concentration, 100 is no change; for remaining activity at 100 µM: read-out: residual kinase activity, WNK1
Chain of WNK1 (Q9H4A3 whole entry, species assumed): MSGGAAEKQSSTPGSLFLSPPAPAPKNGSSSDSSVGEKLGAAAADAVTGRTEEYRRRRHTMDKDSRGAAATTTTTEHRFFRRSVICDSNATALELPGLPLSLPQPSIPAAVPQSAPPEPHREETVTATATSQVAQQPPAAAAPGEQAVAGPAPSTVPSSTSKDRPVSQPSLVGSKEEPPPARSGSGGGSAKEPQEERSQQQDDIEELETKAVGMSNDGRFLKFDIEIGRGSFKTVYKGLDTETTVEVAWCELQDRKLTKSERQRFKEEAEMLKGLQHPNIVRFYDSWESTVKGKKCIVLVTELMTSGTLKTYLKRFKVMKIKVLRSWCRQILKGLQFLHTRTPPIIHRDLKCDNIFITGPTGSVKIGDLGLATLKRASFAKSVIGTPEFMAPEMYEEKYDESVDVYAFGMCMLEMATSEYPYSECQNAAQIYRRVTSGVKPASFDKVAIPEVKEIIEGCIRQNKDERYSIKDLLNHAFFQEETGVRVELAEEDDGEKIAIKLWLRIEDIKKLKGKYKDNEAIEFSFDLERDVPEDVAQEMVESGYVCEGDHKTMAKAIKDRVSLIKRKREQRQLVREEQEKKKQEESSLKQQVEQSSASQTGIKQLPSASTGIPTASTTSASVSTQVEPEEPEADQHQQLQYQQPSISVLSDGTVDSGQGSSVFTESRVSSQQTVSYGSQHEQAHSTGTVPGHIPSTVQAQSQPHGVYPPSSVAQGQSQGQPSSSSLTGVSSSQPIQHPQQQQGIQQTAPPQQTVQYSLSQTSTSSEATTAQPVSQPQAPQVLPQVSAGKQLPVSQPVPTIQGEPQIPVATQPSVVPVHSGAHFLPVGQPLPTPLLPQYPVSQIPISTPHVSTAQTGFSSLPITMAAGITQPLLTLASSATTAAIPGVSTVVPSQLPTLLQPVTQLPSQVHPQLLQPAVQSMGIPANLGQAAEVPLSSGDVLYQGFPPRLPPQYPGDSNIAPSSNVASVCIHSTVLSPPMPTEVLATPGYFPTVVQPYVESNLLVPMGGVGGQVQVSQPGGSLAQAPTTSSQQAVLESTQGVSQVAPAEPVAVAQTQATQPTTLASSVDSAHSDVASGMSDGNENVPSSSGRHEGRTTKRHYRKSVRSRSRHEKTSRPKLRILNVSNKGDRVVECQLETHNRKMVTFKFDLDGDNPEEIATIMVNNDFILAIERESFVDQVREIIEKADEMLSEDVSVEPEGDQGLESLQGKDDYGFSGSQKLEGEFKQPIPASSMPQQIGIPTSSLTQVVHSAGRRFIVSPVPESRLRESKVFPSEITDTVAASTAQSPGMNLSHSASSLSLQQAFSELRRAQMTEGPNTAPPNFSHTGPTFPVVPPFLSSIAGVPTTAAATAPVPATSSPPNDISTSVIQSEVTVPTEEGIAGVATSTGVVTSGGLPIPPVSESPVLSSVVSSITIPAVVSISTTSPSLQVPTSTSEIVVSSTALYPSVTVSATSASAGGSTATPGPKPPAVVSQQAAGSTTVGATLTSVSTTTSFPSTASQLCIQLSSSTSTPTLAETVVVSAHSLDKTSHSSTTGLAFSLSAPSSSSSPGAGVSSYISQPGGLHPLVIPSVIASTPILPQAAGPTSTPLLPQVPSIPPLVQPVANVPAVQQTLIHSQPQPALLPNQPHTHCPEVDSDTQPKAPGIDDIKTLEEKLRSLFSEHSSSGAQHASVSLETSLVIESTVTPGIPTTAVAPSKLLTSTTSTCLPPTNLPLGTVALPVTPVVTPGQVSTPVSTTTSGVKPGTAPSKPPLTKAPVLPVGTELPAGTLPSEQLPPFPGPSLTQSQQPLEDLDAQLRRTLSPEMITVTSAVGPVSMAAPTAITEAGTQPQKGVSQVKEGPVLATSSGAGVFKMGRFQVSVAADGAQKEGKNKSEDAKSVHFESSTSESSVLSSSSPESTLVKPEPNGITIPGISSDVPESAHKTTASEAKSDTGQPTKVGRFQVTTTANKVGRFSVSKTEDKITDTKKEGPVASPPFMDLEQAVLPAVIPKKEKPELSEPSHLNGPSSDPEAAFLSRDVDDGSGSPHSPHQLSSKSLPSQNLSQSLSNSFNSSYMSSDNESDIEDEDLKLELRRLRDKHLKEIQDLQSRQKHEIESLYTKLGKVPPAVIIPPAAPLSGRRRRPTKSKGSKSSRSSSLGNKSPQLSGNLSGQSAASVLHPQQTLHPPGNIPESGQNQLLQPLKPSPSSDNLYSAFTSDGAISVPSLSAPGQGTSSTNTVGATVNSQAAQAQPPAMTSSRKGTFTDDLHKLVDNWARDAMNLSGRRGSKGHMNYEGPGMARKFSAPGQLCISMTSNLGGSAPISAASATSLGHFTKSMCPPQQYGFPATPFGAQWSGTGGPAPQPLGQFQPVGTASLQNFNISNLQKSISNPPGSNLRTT
From the text: as §1

OSR1 = OSR1 (Homo sapiens, UniProt O95747); experiment: Kinase profiling OSR1; settings: 100 micromolar inhibitor concentration, 100 is no change; for remaining activity at 100 µM: read-out: residual kinase activity, OSR1
Chain of OSR1 (O95747 whole entry): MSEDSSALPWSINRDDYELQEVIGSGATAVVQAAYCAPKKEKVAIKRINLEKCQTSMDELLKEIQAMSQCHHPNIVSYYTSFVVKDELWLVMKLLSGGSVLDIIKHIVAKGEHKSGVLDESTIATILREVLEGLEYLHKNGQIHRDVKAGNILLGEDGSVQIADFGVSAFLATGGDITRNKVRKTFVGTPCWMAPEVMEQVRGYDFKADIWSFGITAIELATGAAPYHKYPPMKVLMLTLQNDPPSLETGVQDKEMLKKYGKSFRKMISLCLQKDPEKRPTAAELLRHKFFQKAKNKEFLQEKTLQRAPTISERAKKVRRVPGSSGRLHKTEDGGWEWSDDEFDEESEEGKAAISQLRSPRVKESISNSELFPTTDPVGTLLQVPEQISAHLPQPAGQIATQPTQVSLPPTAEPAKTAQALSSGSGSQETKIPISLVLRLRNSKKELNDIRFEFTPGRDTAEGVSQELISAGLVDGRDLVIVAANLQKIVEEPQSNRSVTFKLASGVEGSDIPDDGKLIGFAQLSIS
From the text: as §1

MLK1 = MLK1 (Homo sapiens, UniProt P80192); experiment: Kinase profiling MLK1; settings: 100 micromolar inhibitor concentration, 100 is no change; for remaining activity at 100 µM: read-out: residual kinase activity, MLK1
Chain of MLK1 (P80192 whole entry, species assumed): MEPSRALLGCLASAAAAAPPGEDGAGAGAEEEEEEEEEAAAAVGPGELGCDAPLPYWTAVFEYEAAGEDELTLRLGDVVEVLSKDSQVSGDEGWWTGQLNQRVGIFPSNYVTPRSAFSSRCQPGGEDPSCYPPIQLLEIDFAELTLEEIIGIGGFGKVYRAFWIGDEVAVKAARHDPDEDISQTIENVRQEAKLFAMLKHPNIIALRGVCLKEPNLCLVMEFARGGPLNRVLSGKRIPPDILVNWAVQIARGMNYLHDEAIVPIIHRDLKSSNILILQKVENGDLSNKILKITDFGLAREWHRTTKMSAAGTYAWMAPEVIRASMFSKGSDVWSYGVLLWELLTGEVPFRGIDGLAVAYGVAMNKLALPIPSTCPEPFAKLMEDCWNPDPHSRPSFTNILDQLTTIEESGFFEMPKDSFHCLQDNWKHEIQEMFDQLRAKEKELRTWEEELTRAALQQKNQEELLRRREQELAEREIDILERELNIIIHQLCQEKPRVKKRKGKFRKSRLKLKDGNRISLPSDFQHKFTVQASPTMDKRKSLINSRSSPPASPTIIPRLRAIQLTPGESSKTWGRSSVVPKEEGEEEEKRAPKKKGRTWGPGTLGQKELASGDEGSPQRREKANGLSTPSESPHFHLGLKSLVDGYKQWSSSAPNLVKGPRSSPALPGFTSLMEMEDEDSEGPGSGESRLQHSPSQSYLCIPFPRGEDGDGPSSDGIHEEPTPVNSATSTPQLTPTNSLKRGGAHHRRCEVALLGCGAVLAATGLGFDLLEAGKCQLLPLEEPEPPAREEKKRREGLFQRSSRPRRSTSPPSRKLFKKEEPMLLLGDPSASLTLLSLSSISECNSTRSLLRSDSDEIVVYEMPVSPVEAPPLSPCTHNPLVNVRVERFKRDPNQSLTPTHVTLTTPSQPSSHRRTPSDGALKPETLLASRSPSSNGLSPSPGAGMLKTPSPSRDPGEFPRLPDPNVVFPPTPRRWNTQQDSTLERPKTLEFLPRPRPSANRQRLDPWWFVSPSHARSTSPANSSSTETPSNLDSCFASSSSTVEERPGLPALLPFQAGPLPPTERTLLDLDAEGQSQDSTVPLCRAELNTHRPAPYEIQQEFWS
From the text: as §1

Row | Compound | residual kinase activity, EPH-B2 (EPH-B2) | residual kinase activity, CK1γ2 (CK1γ2) | residual kinase activity, BRK (BRK) | residual kinase activity, BRSK1 (BRSK1) | residual kinase activity, SIK2 (SIK2) | residual kinase activity, TSSK1 (TSSK1) | residual kinase activity, WNK1 (WNK1) | residual kinase activity, OSR1 (OSR1) | residual kinase activity, MLK1 (MLK1) | remaining activity at 100 µM (EPH-B2) [%] | remaining activity at 100 µM (CK1γ2) [%] | remaining activity at 100 µM (BRK) [%] | remaining activity at 100 µM (BRSK1) [%] | remaining activity at 100 µM (SIK2) [%] | remaining activity at 100 µM (TSSK1) [%] | remaining activity at 100 µM (WNK1) [%] | remaining activity at 100 µM (OSR1) [%] | remaining activity at 100 µM (MLK1) [%]
1 | CC(=O)Nc1nc2ccccc2s1 [Compound 03-32] | 116 | 41 | 89 | 95 | 81 | 83 | 98 | 112 | 72 |  |  |  |  |  |  |  |  | 
2 | O=C(Nc1nc2cc(O)ccc2s1)c1cccnc1 [Compound 03-33] | 99 | 25 | 46 | 83 | 69 | 75 | 103 | 109 | 61 |  |  |  |  |  |  |  |  | 
3 | O=C(Nc1nc2ccc(O)cc2s1)c1ccccc1 [Compound 03-60] | 78 | 3 | 14 | 43 | 26 | 27 | 108 | 82 | 5 |  |  |  |  |  |  |  |  | 
4 | CC(=O)Nc1nc2cc(C(F)(F)F)ccc2s1 [Compound 03-73] |  |  |  |  |  |  |  |  |  | 98 | 79 | 106 | 83 | 91 | 71 | 128 | 113 | 75
5 | CC(=O)Nc1nc2cc(C)ccc2s1 [Compound 03-76] | 108 | 54 | 80 | 75 | 71 | 79 | 104 | 116 | 57 |  |  |  |  |  |  |  |  | 
6 | CC(=O)Nc1nc2cc(F)ccc2s1 [Compound 03-77] |  |  |  |  |  |  |  |  |  | 114 | 22 | 91 | 78 | 64 | 84 | 99 | 109 | 58
7 | O=C(Nc1nc2ccc(O)cc2s1)c1ccncc1 [Compound 08-42] | 99 | 62 | 43 | 56 | 82 | 85 | 89 | 72 | 33 |  |  |  |  |  |  |  |  | 
8 | O=C(Nc1nc2ccc(O)cc2s1)c1cccnc1 [Compound 08-44] | 91 | 20 | 21 | 45 | 68 | 109 | 99 | 51 | 13 |  |  |  |  |  |  |  |  | 
